Assay results from the NIST ThermoML archive (doi:10.1021/je060200b).
Numbers after ± are expanded uncertainties.

Test: molar heat capacity at constant pressure; xn = mol fraction of the nth substance listed
Settings: 101 kPa, Liquid

BrCCCCCBr [1,5-dibromopentane] + CCCCCCC
molar heat capacity at constant pressure [J/K/mol]
Settings	x1 = 0.1006	x1 = 0.1994	x1 = 0.3003	x1 = 0.4008	x1 = 0.5004	x1 = 0.5999	x1 = 0.6995	x1 = 0.8002	x1 = 0.899	x1 = 1
293.15 K	221.62 ± 1.7	221.15 ± 1.7	221 ± 1.7	220.91 ± 1.7	220.8 ± 1.7	220.5 ± 1.7	220.19 ± 1.7	219.87 ± 1.7	219.89 ± 1.7	219.76 ± 1.7
294.15 K	221.93 ± 1.7	221.54 ± 1.7	221.39 ± 1.7	221.29 ± 1.7	221.14 ± 1.7	220.66 ± 1.7	220.44 ± 1.7	220.16 ± 1.7	220.02 ± 1.7	219.98 ± 1.7
295.15 K	222.35 ± 1.7	221.76 ± 1.7	221.59 ± 1.7	221.6 ± 1.7	221.41 ± 1.7	220.91 ± 1.7	220.59 ± 1.7	220.44 ± 1.7	220.3 ± 1.7	220.19 ± 1.7
296.15 K	222.62 ± 1.7	222.09 ± 1.7	221.89 ± 1.7	221.77 ± 1.7	221.59 ± 1.7	221.3 ± 1.7	220.81 ± 1.7	220.57 ± 1.7	220.61 ± 1.7	220.41 ± 1.7
297.15 K	223.06 ± 1.7	222.53 ± 1.7	222.34 ± 1.7	222.15 ± 1.7	221.87 ± 1.7	221.5 ± 1.7	221.19 ± 1.7	220.89 ± 1.7	220.76 ± 1.7	220.66 ± 1.7
298.15 K	223.39 ± 1.7	222.84 ± 1.7	222.66 ± 1.7	222.48 ± 1.7	222.23 ± 1.7	221.68 ± 1.7	221.42 ± 1.7	221.11 ± 1.7	221.09 ± 1.7	220.84 ± 1.7
299.15 K	223.7 ± 1.7	223.2 ± 1.7	222.87 ± 1.7	222.74 ± 1.7	222.55 ± 1.7	221.91 ± 1.7	221.69 ± 1.7	221.39 ± 1.7	221.32 ± 1.7	221.1 ± 1.7
300.15 K	224.16 ± 1.7	223.42 ± 1.7	223.3 ± 1.7	222.91 ± 1.7	222.69 ± 1.7	222.3 ± 1.7	221.83 ± 1.7	221.48 ± 1.7	221.55 ± 1.7	221.28 ± 1.7
301.15 K	224.39 ± 1.7	223.89 ± 1.7	223.58 ± 1.7	223.33 ± 1.7	223.05 ± 1.7	222.57 ± 1.7	222.17 ± 1.7	221.85 ± 1.7	221.77 ± 1.7	221.49 ± 1.7
302.15 K	224.88 ± 1.7	224.24 ± 1.7	223.78 ± 1.7	223.52 ± 1.7	223.39 ± 1.7	222.87 ± 1.7	222.33 ± 1.7	222.09 ± 1.7	221.93 ± 1.7	221.73 ± 1.7
303.15 K	225.21 ± 1.7	224.57 ± 1.7	224.21 ± 1.7	223.81 ± 1.7	223.49 ± 1.7	223.01 ± 1.7	222.58 ± 1.7	222.36 ± 1.7	222.22 ± 1.7	221.95 ± 1.7
304.15 K	225.49 ± 1.8	224.9 ± 1.7	224.44 ± 1.7	224.26 ± 1.7	223.94 ± 1.7	223.37 ± 1.7	222.93 ± 1.7	222.44 ± 1.7	222.36 ± 1.7	222.17 ± 1.7
305.15 K	225.96 ± 1.8	225.3 ± 1.8	224.89 ± 1.7	224.59 ± 1.7	224.11 ± 1.7	223.63 ± 1.7	223.17 ± 1.7	222.81 ± 1.7	222.72 ± 1.7	222.41 ± 1.7
306.15 K	226.32 ± 1.8	225.5 ± 1.8	225.09 ± 1.7	224.8 ± 1.7	224.39 ± 1.7	223.91 ± 1.7	223.45 ± 1.7	223.05 ± 1.7	222.99 ± 1.7	222.63 ± 1.7
307.15 K	226.59 ± 1.8	225.83 ± 1.8	225.41 ± 1.8	225.15 ± 1.7	224.77 ± 1.7	224.05 ± 1.7	223.72 ± 1.7	223.33 ± 1.7	223.23 ± 1.7	222.85 ± 1.7
308.15 K	227.03 ± 1.8	226.31 ± 1.8	225.84 ± 1.8	225.38 ± 1.8	225.09 ± 1.7	224.36 ± 1.7	223.89 ± 1.7	223.55 ± 1.7	223.34 ± 1.7	223.09 ± 1.7
309.15 K	227.44 ± 1.8	226.66 ± 1.8	226.09 ± 1.8	225.8 ± 1.8	225.27 ± 1.7	224.76 ± 1.7	224.26 ± 1.7	223.77 ± 1.7	223.6 ± 1.7	223.31 ± 1.7
310.15 K	227.81 ± 1.8	226.87 ± 1.8	226.5 ± 1.8	226.12 ± 1.8	225.7 ± 1.8	224.95 ± 1.7	224.52 ± 1.7	224.04 ± 1.7	223.81 ± 1.7	223.56 ± 1.7
311.15 K	228.09 ± 1.8	227.25 ± 1.8	226.85 ± 1.8	226.31 ± 1.8	225.87 ± 1.8	225.3 ± 1.8	224.66 ± 1.7	224.19 ± 1.7	224.19 ± 1.7	223.78 ± 1.7
312.15 K	228.59 ± 1.8	227.7 ± 1.8	227.09 ± 1.8	226.6 ± 1.8	226.24 ± 1.8	225.58 ± 1.8	225.06 ± 1.7	224.56 ± 1.7	224.44 ± 1.7	224.03 ± 1.7
313.15 K	228.91 ± 1.8	228.06 ± 1.8	227.49 ± 1.8	227.05 ± 1.8	226.53 ± 1.8	225.84 ± 1.8	225.31 ± 1.8	224.81 ± 1.7	224.67 ± 1.7	224.26 ± 1.7
